Assay results taken from ChEMBL document CHEMBL1201862, “PubChem BioAssay data set” (2004).
Activity calls are given as the source filed them.

Key:
[1] = Luminescence Cell-Based Dose Confirmation HTS to Identify Activators of 5'UTR Stem-Loop Driven Alpha-Synuclein mRNA Translation in H4 Neuroglioblastoma Cells. [Related pubchem assays: 1829 (Project Summary), 1814 (Primary HTS)]; type: functional
[2] = Luminescence Cell-Based Dose Response HTS to Identify Activators of Luciferase Translation or Activity in H4 […] Cells. [Related pubchem assays: 1829 (Project Summary), 1814 (Primary HTS)]; type: functional
H4 = assay: Luminescence Cell-Based Dose Response HTS to Identify Activators of 5'UTR Stem-Loop Driven Prion Protein mRNA Translation in H4 Neuroglioblastoma Cells. [Related pubchem assays: 1829 (Project Summary), 1814 (Primary HTS)]; type: functional; conditions: Homo sapiens
Cysteine protease ATG4B = Cysteine protease ATG4B (Homo sapiens, UniProt Q9Y4P1); type: functional;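 also: Fluorescence-based dose-response confirmation assay measuring inhibition of ATG4B activity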
Sequence of Cysteine protease ATG4B (Q9Y4P1 whole entry): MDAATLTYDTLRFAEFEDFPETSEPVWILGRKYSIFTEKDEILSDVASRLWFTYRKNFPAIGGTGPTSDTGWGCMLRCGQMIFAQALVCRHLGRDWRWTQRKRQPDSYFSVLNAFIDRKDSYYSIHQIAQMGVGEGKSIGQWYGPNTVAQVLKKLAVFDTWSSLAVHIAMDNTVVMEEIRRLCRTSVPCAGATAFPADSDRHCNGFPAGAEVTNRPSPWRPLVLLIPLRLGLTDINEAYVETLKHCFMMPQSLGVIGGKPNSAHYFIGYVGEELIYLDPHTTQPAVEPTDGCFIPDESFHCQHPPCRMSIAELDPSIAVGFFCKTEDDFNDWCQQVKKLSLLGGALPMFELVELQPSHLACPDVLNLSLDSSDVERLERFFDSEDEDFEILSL

Phospholipase A2 = Phospholipase A2 (Homo sapiens, UniProt P04054); type: functional;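 also: confirmatory dose-response counterscreen on phospholipase A2, testing hits that came from an ultra-high-throughput screen for ATG4B inhibitors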
Sequence of Phospholipase A2 (P04054 whole entry): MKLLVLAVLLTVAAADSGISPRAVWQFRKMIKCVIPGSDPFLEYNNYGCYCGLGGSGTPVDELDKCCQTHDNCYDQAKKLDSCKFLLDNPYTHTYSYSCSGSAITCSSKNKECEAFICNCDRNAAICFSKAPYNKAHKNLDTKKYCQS

[3] = target: T1, Kappa-type opioid receptor (Homo sapiens, UniProt P41145); assay: SAR analysis of small molecule agonists of the kappa opioid receptor via a luminescent beta-arrestin assay. [Related pubchem assays (depositor defined):AID1777, AID1786, AID1966, AID2133, AID2136, AID2348, AID2352, AID2357, AID2359, AID2370, AID2420, AID2478, AID2491, AID2492, AID2493, AID2497, AID2498, AID2500, AID449737, AID488822, AID488842]; type: functional
T1 sequence (P41145 whole entry): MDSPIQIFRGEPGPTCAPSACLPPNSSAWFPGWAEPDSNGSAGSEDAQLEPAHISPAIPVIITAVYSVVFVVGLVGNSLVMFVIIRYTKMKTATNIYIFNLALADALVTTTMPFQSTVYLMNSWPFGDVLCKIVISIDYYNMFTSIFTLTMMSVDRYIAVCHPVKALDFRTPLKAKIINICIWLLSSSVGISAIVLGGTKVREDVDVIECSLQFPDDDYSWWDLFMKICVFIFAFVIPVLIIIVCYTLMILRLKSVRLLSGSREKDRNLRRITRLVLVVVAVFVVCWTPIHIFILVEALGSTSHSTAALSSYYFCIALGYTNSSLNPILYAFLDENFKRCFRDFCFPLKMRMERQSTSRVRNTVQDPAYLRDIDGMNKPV

Mu-type opioid receptor [4] = target: T2, Mu-type opioid receptor (Homo sapiens, UniProt P35372); assay: MOR agonists by imaging, SAR follow-up, image-based (AID 2352); type: functional
T2 sequence (P35372 whole entry): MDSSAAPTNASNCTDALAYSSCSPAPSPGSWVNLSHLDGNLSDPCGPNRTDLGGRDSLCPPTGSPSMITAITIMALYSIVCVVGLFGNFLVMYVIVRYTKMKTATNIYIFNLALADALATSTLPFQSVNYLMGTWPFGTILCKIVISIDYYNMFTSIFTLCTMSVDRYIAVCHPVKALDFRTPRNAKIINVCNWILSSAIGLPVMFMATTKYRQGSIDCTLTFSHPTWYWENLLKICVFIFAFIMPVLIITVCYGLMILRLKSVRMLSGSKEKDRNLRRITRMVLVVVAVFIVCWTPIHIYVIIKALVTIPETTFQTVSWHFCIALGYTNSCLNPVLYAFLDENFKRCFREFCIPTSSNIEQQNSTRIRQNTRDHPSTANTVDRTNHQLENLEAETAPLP

[5] = target: T3, Delta-type opioid receptor (Homo sapiens, UniProt P41143); assay: DOR agonists, SAR follow-up, image-based (AID 2370); type: functional
T3 sequence (P41143 whole entry): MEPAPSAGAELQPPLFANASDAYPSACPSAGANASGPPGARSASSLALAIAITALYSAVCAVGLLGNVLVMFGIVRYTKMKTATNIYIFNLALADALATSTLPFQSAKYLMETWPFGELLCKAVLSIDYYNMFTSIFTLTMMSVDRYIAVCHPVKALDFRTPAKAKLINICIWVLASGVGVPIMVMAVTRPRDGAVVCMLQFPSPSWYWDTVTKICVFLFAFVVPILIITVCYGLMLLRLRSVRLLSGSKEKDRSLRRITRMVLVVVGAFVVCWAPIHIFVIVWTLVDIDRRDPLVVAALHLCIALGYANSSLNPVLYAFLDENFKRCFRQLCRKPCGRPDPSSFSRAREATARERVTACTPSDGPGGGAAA

[6] = target: T1, Kappa-type opioid receptor; assay: KOR antagonists by imaging, SAR follow-up, image-based (AID 2348); type: functional
Mu-type opioid receptor [7] = target: T2, Mu-type opioid receptor; assay: MOR antagonists, SAR follow-up, image-based (AID 2420); type: functional;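 also: compounds added before stimulation of receptor with agonist DAMGO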
[8] = target: T1, Kappa-type opioid receptor; assay: KOR agonist analogs, imaging readout, SAR follow-up, image-based (AID 2359); type: functional
[9] = target: T3, Delta-type opioid receptor; assay: DOR antagonists, SAR follow-up, image-based (AID 2357); type: functional
[10] = target: Lysine-specific demethylase 4C (Homo sapiens, UniProt Q9H3R0); assay: GASC-1 (JMJD2C) histone demethylase inhibitors, dose response, biochemical, DELFIA europium, cherry-picked samples (AID 488835); type: functional
Sequence of Lysine-specific demethylase 4C (Q9H3R0 whole entry): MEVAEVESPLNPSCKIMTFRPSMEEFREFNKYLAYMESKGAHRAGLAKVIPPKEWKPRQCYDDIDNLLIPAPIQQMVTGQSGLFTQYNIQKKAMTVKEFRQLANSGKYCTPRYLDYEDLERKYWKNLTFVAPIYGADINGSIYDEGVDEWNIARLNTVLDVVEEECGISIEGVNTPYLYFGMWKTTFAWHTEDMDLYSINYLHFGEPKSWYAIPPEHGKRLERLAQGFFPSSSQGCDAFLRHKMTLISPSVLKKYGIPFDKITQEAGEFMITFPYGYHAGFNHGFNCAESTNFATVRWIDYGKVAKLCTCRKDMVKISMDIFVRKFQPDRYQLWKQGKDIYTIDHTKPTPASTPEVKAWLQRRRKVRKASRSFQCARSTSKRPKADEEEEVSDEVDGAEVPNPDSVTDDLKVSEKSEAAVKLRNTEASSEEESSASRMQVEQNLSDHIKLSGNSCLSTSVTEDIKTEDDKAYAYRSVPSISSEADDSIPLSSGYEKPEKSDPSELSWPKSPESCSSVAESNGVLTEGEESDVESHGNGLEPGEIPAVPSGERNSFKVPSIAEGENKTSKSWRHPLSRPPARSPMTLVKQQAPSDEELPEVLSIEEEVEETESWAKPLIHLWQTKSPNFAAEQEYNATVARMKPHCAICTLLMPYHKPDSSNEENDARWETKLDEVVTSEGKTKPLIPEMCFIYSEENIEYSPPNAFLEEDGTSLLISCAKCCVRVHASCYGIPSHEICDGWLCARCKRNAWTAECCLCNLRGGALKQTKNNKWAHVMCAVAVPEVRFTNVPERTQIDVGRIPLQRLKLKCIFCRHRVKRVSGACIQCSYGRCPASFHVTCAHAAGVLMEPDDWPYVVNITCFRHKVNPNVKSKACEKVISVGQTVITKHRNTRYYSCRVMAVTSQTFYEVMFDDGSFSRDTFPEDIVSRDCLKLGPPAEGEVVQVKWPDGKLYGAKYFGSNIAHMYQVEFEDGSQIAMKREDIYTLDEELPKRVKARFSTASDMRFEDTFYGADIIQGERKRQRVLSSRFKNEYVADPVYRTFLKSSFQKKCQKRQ

CHO-K1 = assay: (§1) Counterscreen for antagonists of the orexin 1 receptor (OX1R; HCRTR1): Homogeneous time resolved fluorescence (HTRF)-based cell-based dose response assay to identify antagonists of the parental CHO-K1 cell line. [Related pubchem assays (depositor defined):AID434989, AID435008, AID463079, AID485270, AID492963, AID492964, AID492965, AID493232, AID504699, AID504701]; type: functional; conditions: Cricetulus griseus
[11] = as §1, with “Fluorescence-based” for “Homogeneous time resolved fluorescence (HTRF)-based”, “cell-based high throughput” for “cell-based”, “CHO” for “CHO-K1”; type: functional
[12] = target: T4, Orexin/Hypocretin receptor type 1 (Homo sapiens, UniProt O43613); assay: Homogeneous Time Resolved Fluorescence (HTRF)-based cell-based high throughput dose response assay for antagonists of the orexin 1 receptor (OX1R; HCRTR1). [Related pubchem assays (depositor defined):AID434989, AID435008, AID463079, AID485270, AID492963, AID492964, AID492965, AID493232, AID504717, AID504718]; type: functional
T4 sequence (O43613 whole entry): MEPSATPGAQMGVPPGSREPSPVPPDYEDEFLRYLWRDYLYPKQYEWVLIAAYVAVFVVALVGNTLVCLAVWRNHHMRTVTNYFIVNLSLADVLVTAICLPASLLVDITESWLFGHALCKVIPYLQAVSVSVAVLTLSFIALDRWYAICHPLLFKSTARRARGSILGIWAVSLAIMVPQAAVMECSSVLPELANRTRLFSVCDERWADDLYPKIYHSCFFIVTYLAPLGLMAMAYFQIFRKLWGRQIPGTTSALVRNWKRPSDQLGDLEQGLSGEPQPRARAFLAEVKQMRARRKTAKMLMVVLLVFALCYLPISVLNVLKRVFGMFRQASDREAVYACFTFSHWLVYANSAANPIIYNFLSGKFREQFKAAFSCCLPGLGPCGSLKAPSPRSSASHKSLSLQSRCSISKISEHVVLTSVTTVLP

[13] = target: T4, Orexin/Hypocretin receptor type 1; assay: Fluorescence-based cell-based high throughput dose response assay for antagonists of the orexin 1 receptor (OX1R; HCRTR1). [Related pubchem assays (depositor defined):AID434989, AID435008, AID463079, AID485270, AID492963, AID492964, AID492965, AID493232, AID504717, AID504718]; type: functional
Orexin receptor type 2 [14] = target: T5, Orexin receptor type 2 (Homo sapiens, UniProt O43614); assay: Counterscreen assay for antagonists of the orexin 1 receptor (OX1R; HCRTR1): Fluorescence-based cell-based dose response assay for antagonists of the orexin 2 receptor (OX2R; HCRTR2), run by assay provider.; type: functional
T5 sequence (O43614 whole entry): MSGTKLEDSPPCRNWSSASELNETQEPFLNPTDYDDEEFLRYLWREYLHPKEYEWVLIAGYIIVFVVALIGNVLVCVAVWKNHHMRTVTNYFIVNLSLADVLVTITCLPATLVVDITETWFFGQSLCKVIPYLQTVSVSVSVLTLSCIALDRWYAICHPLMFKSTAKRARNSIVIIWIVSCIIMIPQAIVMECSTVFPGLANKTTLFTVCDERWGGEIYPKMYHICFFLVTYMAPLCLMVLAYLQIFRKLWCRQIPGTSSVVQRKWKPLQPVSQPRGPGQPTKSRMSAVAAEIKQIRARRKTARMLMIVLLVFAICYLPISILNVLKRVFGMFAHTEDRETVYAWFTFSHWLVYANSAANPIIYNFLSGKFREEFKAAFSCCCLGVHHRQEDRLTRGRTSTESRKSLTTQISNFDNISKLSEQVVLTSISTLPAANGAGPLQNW

Orexin receptor type 2 [15] = target: T5, Orexin receptor type 2; assay: Counterscreen assay for antagonists of the orexin 1 receptor (OX1R; HCRTR1): Homogeneous Time Resolved Fluorescence (HTRF)-based cell-based dose response assay for antagonists of the orexin 2 receptor (OX2R; HCRTR2), run by assay provider.; type: functional
[16] = inhibitors of intracellular T. cruzi replication, confirmation, NIH3T3 host cells, beta-gal luminescence (AID 2044); type: functional, cell-based;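 also: intracellular parasites grown in NIH/3T3 mouse fibroblasts as host cells; luminescent beta-galactosidase reporter signal from transgenic T. cruzi replicating inside host cells; inhibitors lower the luminescence signal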
[17] = cytotoxicity toward NIH3T3 fibroblasts, dose response, counter-screen, cell-based, ATP luminescence, mouse fibroblasts (AID 2010); type: functional;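 also: cells exposed to compound for about 90 hours before reading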
[18] = THP-1 cell cytotoxicity, dose response, cytotoxicity control for non-replicating M. tuberculosis project (AID 489025); type: functional
[19] = HepG2 cell cytotoxicity, dose response, cytotoxicity control for non-replicating M. tuberculosis project (AID 489018); type: functional; conditions: Mycobacterium tuberculosis
[20] = Vero E6 cell cytotoxicity, dose response, cytotoxicity control for non-replicating M. tuberculosis project, secondary assay (AID 492998); type: functional, VeroE6; conditions: Vero C1008
cells = type: functional
[21] = target: Apoptotic protease-activating factor 1 (Homo sapiens, UniProt O14727); type: functional
Sequence of Apoptotic protease-activating factor 1 (O14727 whole entry): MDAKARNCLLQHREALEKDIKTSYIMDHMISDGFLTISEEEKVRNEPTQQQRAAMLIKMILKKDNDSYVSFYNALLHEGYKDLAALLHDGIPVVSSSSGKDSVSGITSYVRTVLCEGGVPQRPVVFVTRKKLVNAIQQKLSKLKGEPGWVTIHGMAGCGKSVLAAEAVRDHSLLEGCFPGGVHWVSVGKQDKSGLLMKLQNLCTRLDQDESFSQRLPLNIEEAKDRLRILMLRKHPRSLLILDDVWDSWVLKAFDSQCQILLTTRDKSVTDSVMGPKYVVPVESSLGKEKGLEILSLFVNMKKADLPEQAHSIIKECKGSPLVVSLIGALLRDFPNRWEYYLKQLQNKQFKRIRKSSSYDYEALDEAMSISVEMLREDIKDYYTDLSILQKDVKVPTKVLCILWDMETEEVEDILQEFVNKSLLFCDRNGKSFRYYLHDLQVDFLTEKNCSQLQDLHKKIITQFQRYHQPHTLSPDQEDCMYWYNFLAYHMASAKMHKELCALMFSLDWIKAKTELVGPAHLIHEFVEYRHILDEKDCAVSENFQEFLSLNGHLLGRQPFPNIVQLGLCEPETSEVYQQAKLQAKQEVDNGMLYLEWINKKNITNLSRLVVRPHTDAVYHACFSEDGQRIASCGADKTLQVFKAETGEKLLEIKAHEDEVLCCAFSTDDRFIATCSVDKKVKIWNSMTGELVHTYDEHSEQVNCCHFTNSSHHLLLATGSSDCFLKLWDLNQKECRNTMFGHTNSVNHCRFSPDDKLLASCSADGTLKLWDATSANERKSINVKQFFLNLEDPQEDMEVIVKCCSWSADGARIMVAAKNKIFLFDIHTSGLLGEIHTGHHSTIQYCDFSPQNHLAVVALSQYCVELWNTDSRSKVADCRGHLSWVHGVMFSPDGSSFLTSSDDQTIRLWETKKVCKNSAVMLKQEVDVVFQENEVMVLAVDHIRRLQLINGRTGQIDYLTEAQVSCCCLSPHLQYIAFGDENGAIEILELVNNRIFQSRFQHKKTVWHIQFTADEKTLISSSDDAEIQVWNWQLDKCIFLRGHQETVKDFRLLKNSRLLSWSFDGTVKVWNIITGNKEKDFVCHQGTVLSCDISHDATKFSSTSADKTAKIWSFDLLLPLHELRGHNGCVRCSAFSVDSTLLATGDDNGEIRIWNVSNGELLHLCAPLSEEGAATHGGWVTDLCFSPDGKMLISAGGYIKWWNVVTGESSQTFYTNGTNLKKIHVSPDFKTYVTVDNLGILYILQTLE

[22] = target: T3, Delta-type opioid receptor; assay: Counterscreen for agonists of heterodimerization of the mu 1 (OPRM1) and delta 1 (OPRD1) opioid receptors: Luminescence-based cell-based high throughput dose response assay to identify agonists of OPRD1 homodimerization. [Related pubchem assays (depositor defined):AID504326, AID504355, AID504692, AID504904, AID504905]; type: functional
Mu-type opioid receptor [23] = target: T2, Mu-type opioid receptor; assay: Counterscreen for agonists of heterodimerization of the mu 1 (OPRM1) and delta 1 (OPRD1) opioid receptors: Luminescence-based cell-based high throughput dose response assay to identify agonists of OPRM1 homodimerization.; type: functional
[24] = target: 5-hydroxytryptamine receptor 5A (Homo sapiens, UniProt P47898); assay: Counterscreen for agonists of OPRM1-OPRD1 heterodimerization: luminescence-based cell-based high throughput dose response assay to identify agonists of 5-hydroxytryptamine (serotonin) 5A receptor (HTR5A). [Related pubchem assays (depositor defined):AID504326, AID504355, AID504692, AID504904, AID504905]; type: functional
Sequence of 5-hydroxytryptamine receptor 5A (P47898 whole entry): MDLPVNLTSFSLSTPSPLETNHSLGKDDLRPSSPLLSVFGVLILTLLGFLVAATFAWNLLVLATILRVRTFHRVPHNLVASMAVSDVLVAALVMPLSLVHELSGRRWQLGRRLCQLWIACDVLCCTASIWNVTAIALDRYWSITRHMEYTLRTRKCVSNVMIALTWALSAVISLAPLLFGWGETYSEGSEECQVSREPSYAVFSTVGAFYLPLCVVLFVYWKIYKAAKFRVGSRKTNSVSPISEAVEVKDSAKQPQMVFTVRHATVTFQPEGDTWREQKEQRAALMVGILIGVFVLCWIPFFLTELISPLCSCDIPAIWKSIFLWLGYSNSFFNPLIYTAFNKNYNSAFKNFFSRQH

SMILES: Cc1nn(Cc2c(F)c(F)c(F)c(F)c2F)c(C)c1NC(=O)c1ccc(COc2cc(Cl)ccc2Cl)cc1
- EC50 [1]: > 120 µM (not active)
- EC50 [2]: 7.73 µM (active)
- EC50 (H4): 3.37 µM (active)
- IC50 (Cysteine protease ATG4B): 0.532 µM (active)
- IC50 (Phospholipase A2): 0.27 µM (active)

SMILES: CCCN(Cc1cc2cc(C)ccc2[nH]c1=O)C(=O)c1ccccn1
- EC50 [3]: > 10 µM (inactive)
- EC50 (Mu-type opioid receptor [4]): > 32 µM (inactive)
- EC50 [5]: > 32 µM (inactive)
- IC50 [6]: > 32 µM (inactive)
- IC50 (Mu-type opioid receptor [7]): > 32 µM (inactive)
- EC50 [8]: > 32 µM (inactive)
- IC50 [9]: > 32 µM (inactive)

SMILES: CN(C)c1ccc(C(=O)OCC(=O)N2CCCC2)cc1
- AC50 [10]: 10.6 µM (active)

SMILES: Cc1nn(Cc2c(Cl)cccc2Cl)c(C)c1NC(=O)CCCn1nc([N+](=O)[O-])c(Cl)c1C
- IC50 (Cysteine protease ATG4B): 9.88 µM (active)
- IC50 (Phospholipase A2): 9.06 µM (active)

SMILES: CC(Sc1nc2c(cc1C#N)CCCCC2)C(=O)O (configuration not stated)
- AC50 [10]: > 60 µM (inactive)

SMILES: Cc1cccc(-c2cc3nc(-c4ccccc4)cc(N4CCC5(CC4)OCCO5)n3n2)c1
- IC50 (CHO-K1): > 66.2 µM (inactive)
- IC50 [11]: > 49.8 µM (inactive)
- IC50 [12]: 5.38 µM (active)
- IC50 [13]: 12.6 µM (inactive)
- IC50 (Orexin receptor type 2 [14]): > 88.8 µM (inactive)
- IC50 (Orexin receptor type 2 [15]): > 50 µM (inactive)

SMILES: CN1CCN(c2ccc(NC(=O)c3ccc(-c4ccc(Br)cc4)o3)cc2)CC1
- EC50 [16]: 1.26 µM (active)
- EC50 [17]: > 60 µM (not active)
- CC50 [18]: 16.7 µM (active)
- CC50 [19]: > 20 µM (active)
- CC50 [20]: 13 µM (active)
- IC50 (cells): 2.59 µM (active)
- IC50 [21]: 37 µM (active)
- EC50 [22]: > 10.3 µM (inactive)
- EC50 (Mu-type opioid receptor [23]): > 3.42 µM (active)
- EC50 [24]: > 92.5 µM (inactive)
